Assay results: US9994915B2, “miR-211 expression and related pathways in human melanoma” (Sanford-Burnham Medical Research Institute, priority 2010, dated 2018)

Tests used:
Type in all cases: cell-based, human
[1] = system: IGFBP5 mRNA; experiment: Next Gen sequencing of IGFBP5 mRNA in WM1552C cells
Procedure: To extend the findings of the MITF knock-down study and to further establish IGFBP5 as a miR-211 target, the effect of miR-211 expression on IGFBP5 mRNA was determined. WM1552C cells were transfected with either an empty vector or the vector encoding and expressing miR-211. Additionally, untransfected WM1552C cells were treated with 5-Aza-2′deoxycytidine (“5-Aza”) to investigate whether miR-211 down-regulates IGFBP5 mRNA production through a genomic methylation mechanism.

[2] = system: miR-211 expression; experiment: qPCR of miR-211 expression under simulated hypoxia in SKMEL-28 cells; conditions: DFO-simulated hypoxia
Procedure: (§1) The effect of hypoxia on miR-211 expression was investigated under simulated (DFO) and actual hypoxic conditions in both melanocytes and SKMEL-28 cells. miRNA-211 expression was determined by qPCR.

[3] = system: A375 cells; experiment: cell counts after DFO (simulated hypoxia), A375 and A375/211
Procedure: (§2) A375 cells and WM1552C, both wild-type and miR-211-expressing, were subjected to treatment with 0, 250 nM, or 400 nM defroxamine (DFO) to simulate hypoxic conditions in order to determine whether miR-211 expression is capable of being regulated by changes in O2 concentrations. Cell counts were performed for each treatment group.
(§3) Relative to untreated cells, survival was about 45% following 250 nM DFO and about 25% following 400 nM DFO. The presence of miR-211 in these cells caused this effect to be greatly exacerbated, reducing survival to about 13% at 250 nM DFO and about 8% at 400 nM DFO. Similarly, for WM1552C cells, survival was about 77% at 250 nM DFO and about 55% at 400 nM DFO, compared to untreated cells (FIG. 21).

[4] = system: WM1552C cells; experiment: cell counts after DFO (simulated hypoxia), WM1552C and WM1552C/211
Procedure: as §2, §3

[5] = system: miR-211 expression; experiment: qPCR of miR-211 expression under simulated hypoxia in melanocytes; conditions: DFO-simulated hypoxia
Procedure: as §1

[6] = system: SKMEL-28 cells; experiment: cell counts after DFO with or without miR-211 inhibitor, SKMEL-28
Procedure: SKMEL-28 cells, were subjected to the same DFO or hypoxic conditions as described above either in the presence or absence of an miR-211 inhibitor (has-miR-211 Anti-miR™ miRNA Inhibitor, Ambion, catalog numberAM17000, ID AM10168). […] The survival of SKMEL-28 cells was about 64% at 250 nM DFO and about 50% 400 nM DFO, compared to untreated cells. […] The survival of the SKMEL-28 cells treated with the miR-211 inhibitor was about 85% at 250 nM DFO and about 70% at 400 nM DFO.

Row | SMILES | IGFBP5 mRNA expression [1] | miR-211 expression [2] | survival relative to untreated cells ([3]; A375/211 (miR-211-expressing) cells, 250 nM DFO) | survival relative to untreated cells ([3]; A375/211 (miR-211-expressing) cells, 400 nM DFO) | survival relative to untreated cells ([3]; A375 cells, 250 nM DFO) | survival relative to untreated cells ([3]; A375 cells, 400 nM DFO) | cell death ([3]; miR-211-expressing melanoma cells treated with hypoxia mimetic agent) | survival compared to untreated cells ([4]; WM1552C cells, 250 nM DFO) | survival compared to untreated cells ([4]; WM1552C cells, 400 nM DFO) | survival compared to untreated cells ([4]; WM1552C/211 (miR-211-expressing) cells, 250 nM DFO) | survival compared to untreated cells ([4]; WM1552C/211 (miR-211-expressing) cells, 400 nM DFO) | miR-211 expression [5] | survival compared to untreated cells ([6]; 250 nM DFO) | survival compared to untreated cells ([6]; 400 nM DFO)
1 | Nc1ncn([C@H]2C[C@H](O)[C@@H](CO)O2)c(=O)n1 [5-Aza, 5-Aza-2′deoxycytidine, reference compound] | no effect | – | – | – | – | – | – | – | – | – | – | – | – | –
2 | CC(=O)N(O)CCCCCNC(=O)CCC(=O)N(O)CCCCCNC(=O)CCC(=O)N(O)CCCCCN [DFO, defroxamine] | – | neither simulated nor actual hypoxic conditions had a significant effect | about 13% | about 8% | about 45% | about 25% | increased cell death | about 77% | about 55% | about 40% | about 21% | increases in a dose-dependent manner | about 64% | about 50%
